Measurements published in US12466781B2, “Thyromimetics” (Autobahn Therapeutics, Inc., priority 2019, dated 2025).

What was measured:
TRα = molecular target: T1, TRα (Homo sapiens, UniProt P10827); experiment: Thyroid-hormone reporter-gene assay (TRα-Gal4 hybrid, luciferase, HEK293); assay type: cell-based; conditions: reporter cells, 24 hr incubation; Table 2; read-out: TRα (EC50)
T1 construct: expressed in transfected cells; host or cells: HEK293
T1 sequence (P10827 163-410 isoform P10827-2 limits assumed): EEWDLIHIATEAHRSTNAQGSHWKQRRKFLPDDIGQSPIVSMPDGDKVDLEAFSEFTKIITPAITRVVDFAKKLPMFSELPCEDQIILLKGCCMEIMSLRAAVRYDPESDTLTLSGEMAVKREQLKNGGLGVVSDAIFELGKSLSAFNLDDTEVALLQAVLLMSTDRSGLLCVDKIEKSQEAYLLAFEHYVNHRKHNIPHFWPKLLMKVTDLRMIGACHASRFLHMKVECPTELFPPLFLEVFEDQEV
Protocol: (§1) Compounds were tested for thyroid-hormone receptor activity using TR reporter-gene assays. Reporter cells used in the assays express a TR-receptor hybrid (either TRα or TRβ) in which the native N-terminal DNA binding domain (DBD) has been replaced with that of the yeast Gal4 DBD. The reporter gene, firefly luciferase, is functionally linked to the Gal4 upstream activation sequence (UAS). Both cell lines were derived from human embryonic kidney (HEK293).
(§2) Step 1: A suspension of reporter cells was prepared in cell recovery medium containing 10% charcoal-stripped FBS, and dispensed into assay plates. The plates were pre-incubated for 6 hours in a cell culture incubator (37° C./5% CO2/85% humidity).
(§3) These intermediate stocks were subsequently diluted directly into compound screening medium containing 10% charcoal-stripped FBS to generate “2×-concentration” treatment media (containing 0.2, 0.4 or 0.8% DMSO).
(§4) Step 3: At the end of the pre-incubation period, culture media were discarded from the assay plates, and all wells received 100 μl of compound screening medium. 100 μl of each of the previously prepared “2×-concentration” treatment media were dispensed into duplicate assay wells, thereby achieving the desired final treatment concentrations. The final concentration of DMSO in all assay wells was 0.1, 0.2 or 0.4%. Assay plates were incubated for 24 hr in a cell culture incubator (37° C./5% CO2/85% humidity).
(§5) Step 4: At the 24 h assay endpoint, treatment media were discarded and 100 μl/well of luciferase detection reagent was added. Relative luminometer units (RLUs) were quantified from each assay well.

TRβ = molecular target: T2, TRβ (Homo sapiens, UniProt P10828); experiment: Thyroid-hormone reporter-gene assay (TRβ-Gal4 hybrid, luciferase, HEK293); assay type: cell-based; conditions: Table 2; for T3-SI (selectivity index): calculated as EC50 (TRα)/EC50 (TRβ); for EC50: reporter cells, 24 hr incubation, read-out: TRβ (EC50)
T2 construct: expressed in transfected cells; host or cells: HEK293
T2 sequence (P10828 217-461 limits assumed): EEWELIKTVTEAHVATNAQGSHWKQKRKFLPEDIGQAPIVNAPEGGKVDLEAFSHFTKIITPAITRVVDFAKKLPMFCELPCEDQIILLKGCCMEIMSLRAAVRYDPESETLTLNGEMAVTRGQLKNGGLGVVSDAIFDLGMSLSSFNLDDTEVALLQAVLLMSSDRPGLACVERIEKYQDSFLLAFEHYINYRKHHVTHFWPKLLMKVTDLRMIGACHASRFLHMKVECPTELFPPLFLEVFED
Protocol: as §1, §2, §3, §4, §5

| EC50 (TRα) | T3-SI (selectivity index) (TRβ) | EC50 (TRβ) | Structure (SMILES) |
| --- | --- | --- | --- |
| 100 to 1000 nM | +++ (T3-SI>30×) | 10 to 100 nM | C=Cc1cc(OCC(=O)O)c(F)c(Cl)c1Cc1ccc(O)c(C(C)C)c1 [Compound 75, 2-(3-chloro-2-fluoro-4-(4-hydroxy-3-isopropylbenzyl)-5-vinylphenoxy)acetic acid] |
| 100 to 1000 nM | +++ (T3-SI>30×) | 10 to 100 nM | C=C(C)c1cc(OCC(=O)O)c(F)c(Cl)c1Cc1ccc(O)c(C(C)C)c1 [Compound 79, 2-(3-chloro-2-fluoro-4-(4-hydroxy-3-isopropylbenzyl)-5-(prop-1-en-2-yl)phenoxy)acetic acid] |
| 10 to 100 nM | ++ (3×<T3-SI≤30×) | 10 to 100 nM | CC(C)c1cc(Cc2c(C(C)C)cc(OCC(=O)O)c(F)c2Cl)ccc1O [Compound 81, 2-(3-chloro-2-fluoro-4-(4-hydroxy-3-isopropylbenzyl)-5-isopropylphenoxy)acetic acid] |
| > 1000 nM | +++ (T3-SI>30×) | 100 to 1000 nM | CCCC(c1ccc(F)cc1)c1cc(Cc2c(Cl)cc(OCC(=O)O)c(F)c2Cl)ccc1O (stereo not drawn) [Compound 85, 2-(3,5-dichloro-2-fluoro-4-(3-(1-(4-fluorophenyl)butyl)-4-hydroxybenzyl)phenoxy)acetic acid] |
| 100 to 1000 nM | +++ (T3-SI>30×) | 10 to 100 nM | Cc1c(OCC(=O)O)cc(Cl)c(Cc2ccc(O)c(C(C)C)c2)c1Cl [Compound 91, 2-(3,5-dichloro-4-(4-hydroxy-3-isopropylbenzyl)-2-methylphenoxy)acetic acid] |
| 10 to 100 nM | ++ (3×<T3-SI≤30×) | < 10 nM | CC(C)c1c(O)ccc(Cc2c(Cl)cc(OCC(=O)O)c(F)c2Cl)c1F [Compound 97, 2-(3,5-dichloro-2-fluoro-4-(2-fluoro-4-hydroxy-3-isopropylbenzyl)phenoxy)acetic acid] |
| 10 to 100 nM | +++ (T3-SI>30×) | < 10 nM | Cc1cc(OCC(=O)O)c(F)c(Cl)c1Cc1ccc(O)c(C(C)C)c1F [Compound 109, 2-(3-chloro-2-fluoro-4-(2-fluoro-4-hydroxy-3-isopropylbenzyl)-5-methylphenoxy)acetic acid] |
| 10 to 100 nM | ++ (3×<T3-SI≤30×) | < 10 nM | Cc1c(F)c(OCC(=O)O)cc(Cl)c1Cc1ccc(O)c(C(C)C)c1F [Compound 112, 2-(5-chloro-2-fluoro-4-(2-fluoro-4-hydroxy-3-isopropylbenzyl)-3-methylphenoxy)acetic acid] |
| 100 to 1000 nM | ++ (3×<T3-SI≤30×) | 10 to 100 nM | Cc1cc(OCC(=O)O)c(F)c(Cl)c1Cc1ccc(O)c(C(C)C)c1 [Compound 115, 2-(3-chloro-2-fluoro-4-(4-hydroxy-3-isopropylbenzyl)-5-methylphenoxy)acetic acid] |
| 100 to 1000 nM | ++ (3×<T3-SI≤30×) | 10 to 100 nM | CCc1cc(OCC(=O)Nc2onc(C)c2C)cc(Cl)c1Cc1ccc(O)c(C(C)C)c1F [Compound 142, 2-(3-chloro-5-ethyl-4-(2-fluoro-4-hydroxy-3-isopropylbenzyl)phenoxy)-N-(3,4-dimethylisoxazol-5-yl)acetamide] |
| 100 to 1000 nM | +++ (T3-SI>30×) | 10 to 100 nM | CNC(=O)COc1cc(C)c(Cc2ccc(O)c(C(C)C)c2)c(Cl)c1F [Compound 143, 2-(3-chloro-2-fluoro-4-(4-hydroxy-3-isopropylbenzyl)-5-methylphenoxy)-N-methylacetamide] |

More lines, now with the values behind:

| Structure (SMILES) | EC50 (TRα) | T3-SI (selectivity index) (TRβ) | EC50 (TRβ) |
| --- | --- | --- | --- |
| CCc1cc(OCC(=O)O)c(F)c(Cl)c1Cc1ccc(O)c(C(C)C)c1 [Compound 77, 2-(3-chloro-5-ethyl-2-fluoro-4-(4-hydroxy-3-isopropylbenzyl)phenoxy)acetic acid] | 10 to 100 nM | ++ (3×<T3-SI≤30×) | 10 to 100 nM |
| O=C(O)COc1cc(Cl)c(Cc2ccc(O)c(Cc3ccc(F)cc3)c2)c(Cl)c1F [Compound 83, 2-(3,5-dichloro-2-fluoro-4-(3-(4-fluorobenzyl)-4-hydroxybenzyl)phenoxy)acetic acid] | 100 to 1000 nM | +++ (T3-SI>30×) | 10 to 100 nM |
| CC(C)c1cc(Cc2c(Cl)cc(OCC(=O)O)c(Cl)c2Cl)ccc1O [Compound 89, 2-(2,3,5-trichloro-4-(4-hydroxy-3-isopropylbenzyl)phenoxy)acetic acid] | 10 to 100 nM | ++ (3×<T3-SI≤30×) | 10 to 100 nM |
| Cc1cc(OCC(=O)O)c(F)c(C)c1Cc1ccc(O)c(C(C)C)c1F [Compound 93, 2-(2-fluoro-4-(2-fluoro-4-hydroxy-3-isopropylbenzyl)-3,5-dimethylphenoxy)acetic acid] | 100 to 1000 nM | +++ (T3-SI>30×) | 10 to 100 nM |
| O=C(O)COc1cc(Cl)c(Cc2ccc(O)c(-c3cc(OC(F)F)ccc3F)c2F)c(Cl)c1F [Compound 101, 2-(3,5-dichloro-4-((5′-(difluoromethoxy)-2,2′-difluoro-6-hydroxy-[1,1′-biphenyl]-3-yl)methyl)-2-fluorophenoxy)acetic acid] | > 1000 nM | ++ (3×<T3-SI≤30×) | 100 to 1000 nM |
| O=C(O)COc1cc(Cl)c(Cc2ccc(O)c(Cc3ccc(F)cc3)c2F)c(Cl)c1F [Compound 103, 2-(3,5-dichloro-2-fluoro-4-(2-fluoro-3-(4-fluorobenzyl)-4-hydroxybenzyl)phenoxy)acetic acid] | 10 to 100 nM | +++ (T3-SI>30×) | 10 to 100 nM |
| CC(c1ccc(F)cc1)c1c(O)ccc(Cc2c(Cl)cc(OCC(=O)O)c(F)c2Cl)c1F (stereo not drawn) [Compound 107, 2-(3,5-dichloro-2-fluoro-4-(2-fluoro-3-(1-(4-fluorophenyl)ethyl)-4-hydroxybenzyl)phenoxy)acetic acid] | 10 to 100 nM | ++ (3×<T3-SI≤30×) | 10 to 100 nM |
| Cc1c(F)c(OCC(=O)O)cc(Cl)c1Cc1ccc(O)c(C(C)C)c1 [Compound 118, 2-(5-chloro-2-fluoro-4-(4-hydroxy-3-isopropylbenzyl)-3-methylphenoxy)acetic acid] | 100 to 1000 nM | +++ (T3-SI>30×) | 10 to 100 nM |
| C=C(C)c1c(F)c(OCC(=O)O)cc(Cl)c1Cc1ccc(O)c(C(C)C)c1F [Compound 121, 2-(5-chloro-2-fluoro-4-(2-fluoro-4-hydroxy-3-isopropylbenzyl)-3-(prop-1-en-2-yl)phenoxy)acetic acid] | > 1000 nM | ++ (3×<T3-SI≤30×) | 100 to 1000 nM |
| CC(C)c1c(O)ccc(Cc2c(Cl)cc(OCC(=O)O)c(F)c2C(C)C)c1F [Compound 123, 2-(5-chloro-2-fluoro-4-(2-fluoro-4-hydroxy-3-isopropylbenzyl)-3-isopropylphenoxy)acetic acid] | 100 to 1000 nM | ++ (3×<T3-SI≤30×) | 10 to 100 nM |
| CNC(=O)COc1cc(C)c(Cc2ccc(O)c(C(C)C)c2)c(F)c1F [Compound 133, 2-(2,3-difluoro-4-(4-hydroxy-3-isopropylbenzyl)-5-methylphenoxy)-N-methylacetamide] | 10 to 100 nM | ++ (3×<T3-SI≤30×) | 10 to 100 nM |
